Results from US12486489B2, “Culture medium for testing drug resistance of H.pylori as well as preparation method and use thereof” (priority 2022, dated 2025).
Read-outs that look alike come from different tables or passages of the source.

How the values were obtained:
H. pylori [1] = test: MIC of laboratory H. pylori strains by micro dilution method; format: cell-based; settings: Helicobacter pylori
Experimental: (3) Preparation of bacterial solution: H. pylori grown in logarithmic phase on a solid plate is taken, BHI culture medium is used to prepare a bacterial suspension. The concentration of the bacterial solution is adjusted to 1×10^8 CFU/mL (OD600 is 0.3), diluted 10 times, 100 times, and 1000 times to implement a final concentration of […], for the subsequent use.
(4) Inoculation of bacterial solution: 10 μL of the above bacterial solution for the subsequent use is taken and added to wells the 1-10-th and the 12-th well (bacterial working concentration is 1×10^6 CFU/mL), the 11-th well serves as a non-bacterial control and only sterile water is added. The wells are cultivated for 72 hours to determine the results.

H. pylori [2] = test: Drug resistance testing of laboratory strains on characteristic culture medium (discoloration after 36 hours); format: cell-based, Helicobacter pylori
Experimental: The characteristic culture media (A, B, C, D, E) are cultivated at a constant temperature of 37° C. for 36 hours in a three gas incubator. The characteristic culture media are removed and placed in a natural environment for 30 minutes to observe whether there are discolorations at the point of the culture medium where the specimen is dropped in. […] Another 100 μL of the specimen is taken and coated on Columbia solid culture medium and cultivated in a three gas incubator at a constant temperature of 37° C. for 3 days to 5 days. The number of colonies on the plate is counted to determine the initial inoculation amount. The micro dilution method is adopted to test the MIC of clinical specimen H. pylori, the test is meaningful only when there is no bacterial growth in the negative control well without bacteria and there is bacterial growth in the positive well with bacteria but without antibiotics. […] The results are recorded and whether the micro dilution method and characteristic culture medium are consistent with each other in evaluating the drug resistance of clinical H. pylori strains is compared. […]
(2) Inoculation of bacterial solution: 10 μL bacterial solution is taken and added dropwise onto a characteristic culture medium with 5 pieces (ABCDE) in total.
(3) Culture: all plates are moved to a three gas incubator and cultivated at 37° C. for 36 hours. After being taken out and placed in a natural environment for 30 minutes, whether the bacteria have resistance is determined based on the discoloration of the characteristic culture medium.

[3] = system: clinical H. pylori strain; test: MIC of clinical H. pylori strains by micro dilution method; format: cell-based; settings: Helicobacter pylori, 72 h
Experimental: The characteristic culture media (A, B, C, D, E) are cultivated at a constant temperature of 37° C. for 36 hours in a three gas incubator. The characteristic culture media are removed and placed in a natural environment for 30 minutes to observe whether there are discolorations at the point of the culture medium where the specimen is dropped in. […] Another 100 μL of the specimen is taken and coated on Columbia solid culture medium and cultivated in a three gas incubator at a constant temperature of 37° C. for 3 days to 5 days. The number of colonies on the plate is counted to determine the initial inoculation amount. The micro dilution method is adopted to test the MIC of clinical specimen H. pylori, the test is meaningful only when there is no bacterial growth in the negative control well without bacteria and there is bacterial growth in the positive well with bacteria but without antibiotics.
H. pylori single colony grown on Colombian culture medium is taken (which is confirmed as H. pylori by urease, oxidase, catalase, and PCR testing of CagA gene, as illustrated in FIG. 13) and the bacteria are increased. During the preparation of MIC plates and bacterial solution, H. pylori with logarithmic growth phase is taken to prepare a bacterial suspension by using BHI. The concentration OD600 is adjusted to 0.3 (1×10^8 CFU/mL, diluted 10 times, 10 μL is taken and added to wells 1-8 (with a bacterial solution concentration of approximately 1.0×10^6 CFU/mL per well, cultivated for 72 hours to determine the results.

H. pylori [4] = test: Verification of resistance breakpoint: growth of laboratory strains on Columbia solid culture medium with added antibiotics, 72 hours; format: cell-based, Helicobacter pylori
Experimental: The plates are cooled and inverted for approximately 10 mL/piece, marked properly for the subsequent use.
(2) Preparation of bacterial solution: H. pylori grown in logarithmic phase on a solid plate is taken to prepare a bacterial suspension by using BHI. The concentration OD600 is adjusted to 0.3 (1×10^8 CFU/mL), diluted 10 times for the subsequent use.
(3) Inoculation of bacterial solution: 10 μL of bacterial solution is taken and added to Columbia culture medium and the results are determined after cultivating for 72 hours.
(4) Result determination: the minimum drug concentration for no growth of bacteria on the plate is the minimum inhibitory concentration of the bacteria against the drug.

H. pylori [5] = settings: bacterial count 1×10^6 CFU/mL; cited from earlier work

CC[C@H]1OC(=O)[C@H](C)[C@@H](O[C@H]2C[C@@](C)(OC)[C@@H](O)[C@H](C)O2)[C@H](C)[C@@H](O[C@@H]2O[C@H](C)C[C@H](N(C)C)[C@H]2O)[C@](C)(OC)C[C@@H](C)C(=O)[C@H](C)[C@@H](O)[C@]1(C)O [Clarithromycin, clarithromycin]
16 µg/mL: MIC (H. pylori [1]; read-out: minimum inhibitory concentration (MIC), strain 290, bacterial count 10^6 CFU/mL (first line of the strain))
have developed resistance: drug resistance determined by discoloration of characteristic culture medium (H. pylori [2]; strain 286, 1×10^6 CFU/mL) | drug resistance determined by discoloration of characteristic culture medium (H. pylori [2]; strain 287, 1×10^6 CFU/mL) | drug resistance determined by discoloration of characteristic culture medium (H. pylori [2]; strain 289, 1×10^6 CFU/mL)
developed resistance: drug resistance determined by discoloration of characteristic culture medium (H. pylori [2]; strain 159, 1×10^6 CFU/mL)
0.5 µg/mL: MIC (H. pylori [1]; read-out: minimum inhibitory concentration (MIC), strain 161, bacterial count 10^4 CFU/mL) | MIC (H. pylori [1]; read-out: minimum inhibitory concentration (MIC), strain 163, bacterial count 10^6 CFU/mL (first line of the strain)) | optimal concentration for adding antibiotics (H. pylori [4]; conclusion of breakpoint verification)
0.0312 to 0.0625 µg/mL: MIC (H. pylori [1]; read-out: MICs, standard sensitive strains G27 and 26695, bacterial count 1×10^6 CFU/mL)
32 µg/mL: MIC (H. pylori [1]; read-out: minimum inhibitory concentration (MIC), strain 289, bacterial count 10^6 CFU/mL (first line of the strain))
2 µg/mL: MIC (H. pylori [1]; read-out: minimum inhibitory concentration (MIC), strain 161, bacterial count 10^6 CFU/mL (first line of the strain)) | MIC (H. pylori [1]; read-out: minimum inhibitory concentration (MIC), strain 287, bacterial count 10^6 CFU/mL (second line of the strain)) | MIC (H. pylori [1]; read-out: minimum inhibitory concentration (MIC), strain 289, bacterial count 10^4 CFU/mL) | resistance breakpoints of H. pylori according to CLSI guidelines (H. pylori [5])
0.0156 µg/mL: MIC (H. pylori [1]; strain G27, bacterial count 10^4 CFU/mL, read-out: minimum inhibitory concentration (MIC))
0.125 µg/mL: MIC (H. pylori [1]; strain 159, bacterial count 10^6 CFU/mL (first line of the strain), read-out: minimum inhibitory concentration (MIC)) | MIC (H. pylori [1]; strain 163, bacterial count 10^4 CFU/mL, read-out: minimum inhibitory concentration (MIC)) | MIC (H. pylori [1]; strain 26695, bacterial count 10^6 CFU/mL (first line of the strain), read-out: minimum inhibitory concentration (MIC)) | MIC [3]
−: growth of bacterial (H. pylori [4]; strain 159, antibiotic 1 μg/mL) | growth of bacterial (H. pylori [4]; strain 161, antibiotic 1 μg/mL) | growth of bacterial (H. pylori [4]; strain 162, antibiotic 1 μg/mL) | growth of bacterial (H. pylori [4]; strain 163, antibiotic 0.25 μg/mL) | growth of bacterial (H. pylori [4]; strain 163, antibiotic 0.5 μg/mL) | growth of bacterial (H. pylori [4]; strain 163, antibiotic 1 μg/mL) | growth of bacterial (H. pylori [4]; strain 286, antibiotic 1 μg/mL) | growth of bacterial (H. pylori [4]; strain 287, antibiotic 1 μg/mL) | growth of bacterial (H. pylori [4]; strain 290, antibiotic 1 μg/mL) | growth of bacterial (H. pylori [4]; strain 26695, antibiotic 0.5 μg/mL) | growth of bacterial (H. pylori [4]; strain 26695, antibiotic 1 μg/mL) | growth of bacterial (H. pylori [4]; strain G27, antibiotic 0.5 μg/mL) | growth of bacterial (H. pylori [4]; strain G27, antibiotic 1 μg/mL)
0.25 µg/mL: MIC (H. pylori [1]; read-out: minimum inhibitory concentration (MIC), strain 163, bacterial count 10^6 CFU/mL (second line of the strain)) | MIC ([3]; clinical strain FY-52, approximately 1.0×10^6 CFU/mL per well, 72 hours, read-out: MIC)
no sensitive strain grows: growth of sensitive strains (H. pylori [4]; levofloxacin 0.5, clarithromycin 0.5, metronidazole 4, amoxicillin 0.5 μg/mL)
0.0625 to 8 µg/mL: MIC (H. pylori [1]; resistant strains 159, 161, 162, 163, 286, 287, 289, and 290, bacterial count 1×10^6 CFU/mL, read-out: MICs)
1 µg/mL: MIC (H. pylori [1]; read-out: minimum inhibitory concentration (MIC), strain 161, bacterial count 10^6 CFU/mL (second line of the strain)) | MIC (H. pylori [1]; read-out: minimum inhibitory concentration (MIC), strain 162, bacterial count 10^4 CFU/mL) | MIC (H. pylori [1]; read-out: minimum inhibitory concentration (MIC), strain 286, bacterial count 10^4 CFU/mL)
0.0625 µg/mL: MIC (H. pylori [1]; strain 159, bacterial count 10^6 CFU/mL (second line of the strain), read-out: minimum inhibitory concentration (MIC)) | MIC (H. pylori [1]; strain 26695, bacterial count 10^6 CFU/mL (second line of the strain), read-out: minimum inhibitory concentration (MIC)) | MIC (H. pylori [1]; strain G27, bacterial count 10^6 CFU/mL (first line of the strain), read-out: minimum inhibitory concentration (MIC)) | MIC ([3]; clinical strain FY-31, approximately 1.0×10^6 CFU/mL per well, 72 hours, read-out: MIC) | MIC ([3]; clinical strain FY-47, approximately 1.0×10^6 CFU/mL per well, 72 hours, read-out: MIC)
0.0312 µg/mL: MIC (H. pylori [1]; read-out: minimum inhibitory concentration (MIC), strain 159, bacterial count 10^4 CFU/mL) | MIC (H. pylori [1]; strain G27, bacterial count 10^6 CFU/mL (second line of the strain), read-out: minimum inhibitory concentration (MIC))
8 µg/mL: MIC (H. pylori [1]; read-out: minimum inhibitory concentration (MIC), strain 162, bacterial count 10^6 CFU/mL (first line of the strain)) | MIC (H. pylori [1]; read-out: minimum inhibitory concentration (MIC), strain 286, bacterial count 10^6 CFU/mL (first line of the strain)) | MIC (H. pylori [1]; read-out: minimum inhibitory concentration (MIC), strain 287, bacterial count 10^4 CFU/mL) | MIC (H. pylori [1]; read-out: minimum inhibitory concentration (MIC), strain 289, bacterial count 10^6 CFU/mL (second line of the strain))
does not develop resistance: drug resistance determined by discoloration of characteristic culture medium (H. pylori [2]; strain G27, 1×10^6 CFU/mL)
4 µg/mL: MIC (H. pylori [1]; read-out: minimum inhibitory concentration (MIC), strain 162, bacterial count 10^6 CFU/mL (second line of the strain)) | MIC (H. pylori [1]; read-out: minimum inhibitory concentration (MIC), strain 286, bacterial count 10^6 CFU/mL (second line of the strain)) | MIC (H. pylori [1]; read-out: minimum inhibitory concentration (MIC), strain 287, bacterial count 10^6 CFU/mL (first line of the strain)) | MIC (H. pylori [1]; read-out: minimum inhibitory concentration (MIC), strain 290, bacterial count 10^4 CFU/mL) | MIC (H. pylori [1]; read-out: minimum inhibitory concentration (MIC), strain 290, bacterial count 10^6 CFU/mL (second line of the strain))
+: growth of bacterial (H. pylori [4]; strain 159, antibiotic 0.25 μg/mL) | growth of bacterial (H. pylori [4]; strain 159, antibiotic 0.5 μg/mL) | growth of bacterial (H. pylori [4]; strain 161, antibiotic 0.25 μg/mL) | growth of bacterial (H. pylori [4]; strain 161, antibiotic 0.5 μg/mL) | growth of bacterial (H. pylori [4]; strain 162, antibiotic 0.25 μg/mL) | growth of bacterial (H. pylori [4]; strain 162, antibiotic 0.5 μg/mL) | growth of bacterial (H. pylori [4]; strain 286, antibiotic 0.25 μg/mL) | growth of bacterial (H. pylori [4]; strain 286, antibiotic 0.5 μg/mL) | growth of bacterial (H. pylori [4]; strain 287, antibiotic 0.25 μg/mL) | growth of bacterial (H. pylori [4]; strain 287, antibiotic 0.5 μg/mL) | growth of bacterial (H. pylori [4]; strain 289, antibiotic 0.25 μg/mL) | growth of bacterial (H. pylori [4]; strain 289, antibiotic 0.5 μg/mL) | growth of bacterial (H. pylori [4]; strain 289, antibiotic 1 μg/mL) | growth of bacterial (H. pylori [4]; strain 290, antibiotic 0.25 μg/mL) | growth of bacterial (H. pylori [4]; strain 290, antibiotic 0.5 μg/mL) | growth of bacterial (H. pylori [4]; strain 26695, antibiotic 0.25 μg/mL) | growth of bacterial (H. pylori [4]; strain G27, antibiotic 0.25 μg/mL)
